Measurements: ChEMBL document CHEMBL5550132, “Structure-activity relationship in NOD2 agonistic muramyl dipeptides” (Eur J Med Chem, 2024)

What was measured:
[1] = biological target: T1, Nuclear factor NF-kappa-B complex (Homo sapiens) (UniProt Q00653+P19838+Q04206); assay: Activation of NF-kappaB in HEK-Blue hNOD2 cells assessed as fold change at 10 nM incubated for 48 hrs by SEAP reporter assay; format: cell-based; conditions: filed as activator
[2] = biological target: T1, Nuclear factor NF-kappa-B complex (Homo sapiens); assay: Activation of NF-kappaB in HEK-Blue hNOD2 cells assessed as fold change at 100 nM incubated for 48 hrs by SEAP reporter assay; format: cell-based; conditions: filed as activator
[3] = biological target: T1, Nuclear factor NF-kappa-B complex (Homo sapiens); assay: Activation of NF-kappaB in HEK-Blue hNOD2 cells assessed as fold change at 1000 nM incubated for 48 hrs by SEAP reporter assay; format: cell-based; conditions: filed as activator
[4] = biological target: T1, Nuclear factor NF-kappa-B complex (Homo sapiens); assay: Activation of NF-KappaB (unknown origin) expressed in HEK293T cells assessed as fold change at 10 ng incubated for 12 hrs by Renilla luciferase assay; format: cell-based; conditions: filed as activator
[5] = biological target: T1, Nuclear factor NF-kappa-B complex (Homo sapiens); assay: Activation of NF-KappaB (unknown origin) expressed in HEK293T cells assessed as fold change at 100 ng incubated for 12 hrs by Renilla luciferase assay; format: cell-based; conditions: filed as activator
[6] = biological target: T1, Nuclear factor NF-kappa-B complex (Homo sapiens); assay: Activation of NF-KappaB (unknown origin) expressed in HEK293T cells assessed as fold change at 1000 ng incubated for 12 hrs by Renilla luciferase assay; format: cell-based; conditions: filed as activator
[7] = biological target: T1, Nuclear factor NF-kappa-B complex (Homo sapiens); assay: Activation of NF-KappaB in HEK293T cells assessed as fold change; format: cell-based; conditions: filed as activator
[8] = biological target: T2, Nucleotide-binding oligomerization domain-containing protein 2 (Homo sapiens, UniProt Q9HC29); assay: Agonist activity at NOD2 (unknown origin)
T2 sequence (Q9HC29 whole entry, the tested form may be a part): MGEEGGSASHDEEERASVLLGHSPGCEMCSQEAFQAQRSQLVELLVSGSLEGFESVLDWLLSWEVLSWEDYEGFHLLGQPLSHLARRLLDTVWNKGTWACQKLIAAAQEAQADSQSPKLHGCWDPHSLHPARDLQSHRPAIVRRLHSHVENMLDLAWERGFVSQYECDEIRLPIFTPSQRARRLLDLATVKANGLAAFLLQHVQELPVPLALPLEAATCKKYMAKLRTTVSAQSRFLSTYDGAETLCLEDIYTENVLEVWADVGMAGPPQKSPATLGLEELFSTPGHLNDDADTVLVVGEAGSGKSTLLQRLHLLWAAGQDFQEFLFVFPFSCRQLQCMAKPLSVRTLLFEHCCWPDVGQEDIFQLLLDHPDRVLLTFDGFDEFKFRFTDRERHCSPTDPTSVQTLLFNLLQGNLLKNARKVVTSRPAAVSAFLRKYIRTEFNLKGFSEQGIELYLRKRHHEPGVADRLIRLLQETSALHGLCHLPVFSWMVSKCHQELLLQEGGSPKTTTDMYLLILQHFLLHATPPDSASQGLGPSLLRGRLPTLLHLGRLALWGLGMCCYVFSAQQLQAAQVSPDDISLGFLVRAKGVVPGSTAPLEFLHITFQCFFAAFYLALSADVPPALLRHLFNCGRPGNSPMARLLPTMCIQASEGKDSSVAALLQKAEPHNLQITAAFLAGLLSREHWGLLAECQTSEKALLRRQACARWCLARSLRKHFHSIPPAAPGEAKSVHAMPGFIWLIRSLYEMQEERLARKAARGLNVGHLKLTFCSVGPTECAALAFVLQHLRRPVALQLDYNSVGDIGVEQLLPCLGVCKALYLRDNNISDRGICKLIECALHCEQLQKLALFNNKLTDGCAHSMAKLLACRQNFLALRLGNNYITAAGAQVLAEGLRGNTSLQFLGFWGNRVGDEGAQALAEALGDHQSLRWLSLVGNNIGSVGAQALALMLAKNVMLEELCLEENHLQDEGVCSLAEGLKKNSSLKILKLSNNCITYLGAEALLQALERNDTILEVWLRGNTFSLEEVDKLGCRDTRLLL

Cavia porcellus [9] = organism: Cavia porcellus; assay: Induction of delayed type hypersensitivity in ABA-BSA immunized Hartley Guinea pigs assessed as reduction in skin lesions at 100 ug measured for 24 hrs; format: functional; conditions: dose 100 µg
Cavia porcellus [10] = organism: Cavia porcellus; assay: Induction of delayed type hypersensitivity in ABA-BSA immunized Hartley Guinea pigs assessed as reduction in skin lesions at 100 ug measured for 48 hrs; format: functional; conditions: dose 100 µg
[11] = biological target: T2, Nucleotide-binding oligomerization domain-containing protein 2; assay: Activation of NOD2 in HEK293T cells; format: cell-based; conditions: filed as activator

T1 sequence (P19838 whole entry, looked up): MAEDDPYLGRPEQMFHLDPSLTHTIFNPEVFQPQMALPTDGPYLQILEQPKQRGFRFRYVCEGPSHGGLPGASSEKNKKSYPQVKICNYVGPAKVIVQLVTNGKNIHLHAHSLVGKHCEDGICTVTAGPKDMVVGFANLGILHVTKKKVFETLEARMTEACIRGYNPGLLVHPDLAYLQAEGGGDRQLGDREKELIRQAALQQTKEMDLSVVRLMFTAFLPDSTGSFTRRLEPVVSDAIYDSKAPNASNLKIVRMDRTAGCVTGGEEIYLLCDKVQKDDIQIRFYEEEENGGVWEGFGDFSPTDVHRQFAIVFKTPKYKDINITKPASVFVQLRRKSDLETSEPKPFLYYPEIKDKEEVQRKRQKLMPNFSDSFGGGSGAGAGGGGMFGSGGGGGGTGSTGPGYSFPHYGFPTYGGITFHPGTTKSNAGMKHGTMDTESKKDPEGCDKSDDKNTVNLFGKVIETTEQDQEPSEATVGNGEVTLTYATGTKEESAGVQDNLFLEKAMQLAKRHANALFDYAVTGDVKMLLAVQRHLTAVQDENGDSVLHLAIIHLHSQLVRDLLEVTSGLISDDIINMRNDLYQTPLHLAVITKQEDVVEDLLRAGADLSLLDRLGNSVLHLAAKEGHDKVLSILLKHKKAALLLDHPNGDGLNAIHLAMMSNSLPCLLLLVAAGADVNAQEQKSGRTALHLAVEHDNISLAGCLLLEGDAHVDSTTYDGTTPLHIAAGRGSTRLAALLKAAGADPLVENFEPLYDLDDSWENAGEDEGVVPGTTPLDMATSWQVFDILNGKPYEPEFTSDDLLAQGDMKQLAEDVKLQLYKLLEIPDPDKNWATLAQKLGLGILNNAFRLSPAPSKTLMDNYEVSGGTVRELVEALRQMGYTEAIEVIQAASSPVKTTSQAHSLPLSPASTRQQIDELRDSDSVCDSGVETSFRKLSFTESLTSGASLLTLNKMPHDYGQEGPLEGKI
T1 sequence (Q00653 whole entry, looked up): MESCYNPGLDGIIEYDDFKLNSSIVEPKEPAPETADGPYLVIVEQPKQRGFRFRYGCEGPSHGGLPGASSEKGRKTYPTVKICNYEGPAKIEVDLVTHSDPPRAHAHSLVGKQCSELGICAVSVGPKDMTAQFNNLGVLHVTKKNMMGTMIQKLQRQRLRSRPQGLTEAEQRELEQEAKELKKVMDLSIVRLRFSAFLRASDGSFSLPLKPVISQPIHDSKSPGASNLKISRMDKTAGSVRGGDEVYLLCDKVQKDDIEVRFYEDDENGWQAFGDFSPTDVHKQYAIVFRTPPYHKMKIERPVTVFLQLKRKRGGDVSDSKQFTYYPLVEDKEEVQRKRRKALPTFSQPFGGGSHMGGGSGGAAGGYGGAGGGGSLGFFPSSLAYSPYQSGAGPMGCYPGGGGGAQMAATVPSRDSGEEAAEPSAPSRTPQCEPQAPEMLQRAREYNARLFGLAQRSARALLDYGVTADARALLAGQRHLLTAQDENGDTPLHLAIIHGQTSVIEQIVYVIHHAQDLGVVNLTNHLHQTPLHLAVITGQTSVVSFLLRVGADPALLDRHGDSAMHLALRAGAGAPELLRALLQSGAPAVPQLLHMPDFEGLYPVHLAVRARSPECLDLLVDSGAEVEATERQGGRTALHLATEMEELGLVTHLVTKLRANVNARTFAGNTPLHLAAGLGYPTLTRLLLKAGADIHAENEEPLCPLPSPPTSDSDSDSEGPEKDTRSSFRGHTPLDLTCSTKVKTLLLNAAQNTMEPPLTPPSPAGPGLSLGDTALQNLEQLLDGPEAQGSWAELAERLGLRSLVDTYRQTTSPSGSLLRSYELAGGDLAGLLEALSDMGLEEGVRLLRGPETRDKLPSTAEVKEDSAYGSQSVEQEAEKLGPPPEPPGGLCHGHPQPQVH
T1 sequence (Q04206 whole entry, looked up): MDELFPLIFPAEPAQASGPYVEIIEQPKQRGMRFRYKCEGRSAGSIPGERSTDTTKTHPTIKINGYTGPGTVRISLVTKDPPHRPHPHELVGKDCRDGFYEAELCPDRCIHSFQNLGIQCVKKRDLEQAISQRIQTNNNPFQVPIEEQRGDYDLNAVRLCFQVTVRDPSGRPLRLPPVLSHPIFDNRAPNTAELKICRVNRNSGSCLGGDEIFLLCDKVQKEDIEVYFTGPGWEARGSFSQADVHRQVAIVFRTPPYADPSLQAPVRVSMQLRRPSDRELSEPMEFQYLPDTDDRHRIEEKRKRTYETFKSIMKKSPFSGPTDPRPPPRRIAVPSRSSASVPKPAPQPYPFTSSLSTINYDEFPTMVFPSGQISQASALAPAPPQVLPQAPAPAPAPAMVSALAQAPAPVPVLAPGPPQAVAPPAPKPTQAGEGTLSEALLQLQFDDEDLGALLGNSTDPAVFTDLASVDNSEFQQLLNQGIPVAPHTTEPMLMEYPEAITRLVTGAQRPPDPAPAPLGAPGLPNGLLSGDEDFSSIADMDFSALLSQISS

| fold change (FC) [1] | fold change (FC) [2] | fold change (FC) [3] | fold change (FC) [4] | fold change (FC) [5] | fold change (FC) [6] | fold change (FC) [7] | SMILES | also measured |
| --- | --- | --- | --- | --- | --- | --- | --- | --- |
| 1.3 | 1.65 | 3.15 |  |  |  |  | CC(=O)N[C@H]1[C@H](OCc2ccccc2)O[C@H](CO)[C@@H](N=[N+]=[N-])[C@@H]1O[C@H](C)C(=O)N[C@@H](C)C(=O)N[C@H](CCC(=O)O)C(N)=O |  |
|  |  |  | 1 | 1.05 | 1.1 |  | CC(=O)N[C@@H]1[C@@H](O[C@H](C)C(=O)N[C@@H](C(=O)N[C@H](CCC(=O)O)C(N)=O)C(C)C)[C@H](O)[C@@H](CO)O[C@H]1O |  |
|  |  |  |  |  |  | 0.9 | CC(=O)N[C@@H]1[C@@H](O[C@H](C)C(=O)N[C@@H](C)C(=O)N[C@@H](CCC(=O)O)C(N)=O)[C@H](O)[C@@H](CNC(=O)CCSSCCNC(=O)CCCC[C@@H]2SC[C@@H]3NC(=O)N[C@@H]32)O[C@H]1O |  |
|  |  |  |  |  |  | 9.45 | CC(=O)N[C@@H]1[C@@H](O[C@H](C)C(=O)N[C@@H](C)C(=O)N[C@H](CCC(=O)O)C(N)=O)[C@H](O)[C@@H](CNC(=O)CCOCCOCCOCCOCCNC(=O)CCCC[C@@H]2SC[C@@H]3NC(=O)N[C@@H]32)O[C@H]1O |  |
|  |  |  | 1.3 | 1 | 1.6 |  | CC(=O)N[C@@H]1[C@@H](O[C@H](C)C(=O)N[C@H](C)C(=O)N[C@H](CCC(=O)O)C(N)=O)[C@H](O)[C@@H](CO)O[C@H]1O |  |
| 1.1 | 1.2 | 1.35 |  |  |  |  | CC(=O)N[C@H]1[C@H](OCc2ccccc2)O[C@H](CO)[C@@H](N)[C@@H]1O[C@H](C)C(=O)N[C@@H](C)C(=O)N[C@H](CCC(=O)O)C(N)=O |  |
| 1.7 | 4 | 6.55 |  |  |  |  | CC(=O)N[C@H]1C(O)O[C@H](CO)[C@@H](O)[C@@H]1O[C@H](C)C(=O)N[C@@H](C)C(=O)N[C@H](CCC(=O)O)C(N)=O (stereo partly drawn) [MURAMYL DIPEPTIDE] | EC50 [8]: 203 nM; Activity (Cavia porcellus [9]): 21 mm; Activity (Cavia porcellus [10]): 19 mm |
|  |  |  | 1.5 | 1.1 | 3 |  | CC(=O)N[C@@H]1[C@@H](O[C@H](C)C(=O)N(C)[C@@H](C)C(=O)N[C@H](CCC(=O)O)C(N)=O)[C@H](O)[C@@H](CO)O[C@H]1O |  |
|  |  |  | 1.1 | 1.3 | 1.05 |  | CC(=O)N[C@@H]1[C@@H](O[C@H](C)C(=O)N(C)[C@H](C)C(=O)N[C@H](CCC(=O)O)C(N)=O)[C@H](O)[C@@H](CO)O[C@H]1O |  |
|  |  |  |  |  |  | 9.15 | CC(=O)N[C@@H]1[C@@H](O[C@H](C)C(=O)N[C@@H](C)C(=O)N[C@H](CCC(=O)O)C(N)=O)[C@H](O)[C@@H](CN)O[C@H]1O | Activity (Cavia porcellus [9]): 17.3 mm; Activity (Cavia porcellus [10]): 10.9 mm |
| 1.1 | 1.15 | 1.55 |  |  |  |  | COc1ccc(CC(=O)NCc2cn([C@H]3[C@H](O[C@H](C)C(=O)N[C@@H](C)C(=O)N[C@H](CCC(=O)O)C(N)=O)[C@@H](NC(C)=O)[C@H](O)O[C@@H]3CO)nn2)cc1 |  |
| 1.15 | 1.1 | 1.35 |  |  |  |  | CC(=O)N[C@@H]1[C@@H](O[C@H](C)C(=O)N[C@@H](C)C(=O)N[C@H](CCC(=O)O)C(N)=O)[C@H](n2cc(CNC(=O)Cc3ccc(C(F)(F)F)cc3)nn2)[C@@H](CO)O[C@H]1O |  |
|  |  |  |  |  |  |  | CCO[C@@H]1O[C@H](CO)[C@@H](O[C@@H]2O[C@H](CO)[C@@H](O[C@@H]3O[C@H](CO)[C@@H](O[C@@H]4O[C@H](CO)[C@@H](O)[C@H](O)[C@H]4NC(C)=O)[C@H](O[C@H](C)C(=O)N[C@@H](C)C(=O)N[C@H](CCC(=O)O)C(N)=O)[C@H]3NC(C)=O)[C@H](O)[C@H]2NC(C)=O)[C@H](O[C@H](C)C(=O)N[C@@H](C)C(=O)N[C@H](CCC(=O)O)C(N)=O)[C@H]1NC(C)=O | Activity [11]: 80 mU |
|  |  |  |  |  |  |  | CCO[C@@H]1O[C@H](CO)[C@@H](O[C@@H]2O[C@H](CO)[C@@H](O[C@@H]3O[C@H](CO)[C@@H](O[C@@H]4O[C@H](CO)[C@@H](O)[C@H](O[C@H](C)C(=O)N[C@@H](C)C(=O)N[C@H](CCC(=O)O)C(N)=O)[C@H]4NC(C)=O)[C@H](O)[C@H]3NC(C)=O)[C@H](O[C@H](C)C(=O)N[C@@H](C)C(=O)N[C@H](CCC(=O)O)C(N)=O)[C@H]2NC(C)=O)[C@H](O)[C@H]1NC(C)=O | Activity [11]: 800 mU |
| 1.1 | 1.05 | 1 |  |  |  |  | COc1cccc(-c2cn([C@H]3[C@H](O[C@H](C)C(=O)N[C@@H](C)C(=O)N[C@H](CCC(=O)O)C(N)=O)[C@@H](NC(C)=O)[C@H](O)O[C@@H]3CO)nn2)c1 |  |
|  |  |  | 1.4 | 1.3 | 1.5 |  | CC(=O)N[C@@H]1[C@@H](O[C@H](C)C(=O)N2CCC[C@H]2C(=O)N[C@H](CCC(=O)O)C(N)=O)[C@H](O)[C@@H](CO)O[C@H]1O |  |
|  |  |  | 1.3 | 2.8 | 9.8 |  | CC(=O)N[C@@H]1[C@@H](O[C@H](C)C(=O)NCC(=O)N[C@H](CCC(=O)O)C(N)=O)[C@H](O)[C@@H](CO)O[C@H]1O |  |
|  |  |  |  |  |  | 3 | CC(=O)N[C@@H]1[C@@H](O[C@H](C)C(=O)N[C@@H](C)C(=O)N[C@H](CCC(=O)O)C(N)=O)[C@H](O)[C@@H](CNC(=O)CCOCCOCCOCCOCCOCCOCCOCCOCCOCCOCCOCCOCCNC(=O)CCCC[C@@H]2SC[C@@H]3NC(=O)N[C@@H]32)O[C@H]1O |  |
|  |  |  | 1.8 | 1.15 | 5 |  | CC(=O)N[C@@H]1[C@@H](O[C@H](C)C(=O)N[C@H](C(=O)N[C@H](CCC(=O)O)C(N)=O)[C@@H](C)O)[C@H](O)[C@@H](CO)O[C@H]1O |  |
| 1.1 | 1.05 | 1 |  |  |  |  | CNCc1cn([C@H]2[C@H](O[C@H](C)C(=O)N[C@@H](C)C(=O)N[C@H](CCC(=O)O)C(N)=O)[C@@H](NC(C)=O)[C@H](O)O[C@@H]2CO)nn1 |  |
|  |  |  | 1.7 | 1.05 | 3.4 |  | CC(=O)N[C@@H]1[C@@H](O[C@H](C)C(=O)N[C@H](CO)C(=O)N[C@H](CCC(=O)O)C(N)=O)[C@H](O)[C@@H](CO)O[C@H]1O |  |
|  |  |  |  |  |  | 1.1 | CC(=O)N[C@@H]1[C@@H](O[C@H](C)C(=O)N[C@@H](C)C(=O)N[C@@H](CCC(=O)O)C(N)=O)[C@H](O)[C@@H](CN)O[C@H]1O |  |
| 1.1 | 1.05 | 1.2 |  |  |  |  | COc1ccc(CC(=O)NCc2cn([C@H]3[C@H](O[C@H](C)C(=O)N[C@@H](C)C(=O)N[C@H](CCC(=O)O)C(N)=O)[C@@H](NC(C)=O)[C@H](OCc4ccccc4)O[C@@H]3CO)nn2)cc1 |  |
|  |  |  |  |  |  | 1.2 | CC(=O)N[C@@H]1[C@@H](O[C@H](C)C(=O)N[C@@H](C)C(=O)N[C@@H](CCC(=O)O)C(N)=O)[C@H](O)[C@@H](CNC(=O)CCOCCOCCOCCOCCNC(=O)CCCC[C@@H]2SC[C@@H]3NC(=O)N[C@@H]32)O[C@H]1O |  |
|  |  |  |  |  |  | 1.05 | CC(=O)N[C@@H]1[C@@H](O[C@H](C)C(=O)N[C@@H](C)C(=O)N[C@@H](CCC(=O)O)C(N)=O)[C@H](O)[C@@H](CNC(=O)CCOCCOCCOCCOCCOCCOCCOCCOCCOCCOCCOCCOCCNC(=O)CCCC[C@@H]2SC[C@@H]3NC(=O)N[C@@H]32)O[C@H]1O |  |
|  |  |  |  |  |  | 7.05 | CC(=O)N[C@@H]1[C@@H](O[C@H](C)C(=O)N[C@@H](C)C(=O)N[C@H](CCC(=O)O)C(N)=O)[C@H](O)[C@@H](CNC(=O)CCSSCCNC(=O)CCCC[C@@H]2SC[C@@H]3NC(=O)N[C@@H]32)O[C@H]1O |  |
